Assay results published in PMC9450471 (Computational Biology and Chemistry, 2022).

Assay: in vitro
Conditions: African green monkey

Row | SMILES | CC50
1 | CCC(CC)COC(=O)[C@H](C)N[P@](=O)(OC[C@H]1O[C@@](C#N)(c2ccc3c(N)ncnn23)[C@H](O)[C@@H]1O)Oc1ccccc1 [Remdesivir] | > 100 µM
2 | CC(C)Nc1nc2cc(Cl)c(Cl)cc2n1[C@H]1O[C@@H](CO)[C@H](O)[C@@H]1O [Maribavir] | > 100 µM
3 | Nc1ncnc2c1ncn2[C@@H]1O[C@H](CO)[C@@H](O)[C@@H]1O [Vidarabine, Arabinosyladenine] | > 100 µM
4 | CC(C)=CCNc1ncnc2c1ncn2[C@@H]1O[C@H](CO)[C@@H](O)[C@H]1O [Riboprine, N ^6-(2-Isopentenyl)adenosine] | > 100 µM
5 | CC(C)C(=O)OC[C@H]1O[C@@H](n2ccc(NO)nc2=O)[C@H](O)[C@@H]1O [Molnupiravir] | > 100 µM
6 | O=c1[nH]cnc2c([C@@H]3N[C@H](CO)[C@@H](O)[C@H]3O)c[nH]c12 [Forodesine] | > 100 µM
7 | OC[C@H]1O[C@@H](n2cnc3c(N[C@@H]4CCOC4)ncnc32)[C@H](O)[C@@H]1O [Tecadenoson] | > 100 µM
8 | COc1nc(N)nc2c1ncn2[C@@H]1O[C@H](CO)[C@@H](O)[C@@H]1O [Nelarabine] | > 100 µM
